Assay results reported in ChEMBL document CHEMBL5579900, “Enhanced Recognition Memory through Dual Modulation of Brain Carbonic Anhydrases and Cholinesterases” (J Med Chem, 2024).

Experiments:
[1] = biological target: Acetylcholinesterase (Electrophorus electricus, UniProt O42275)
Description: Inhibition of electric eel AChE by microplate reader based analysis

[2] = biological target: Carbonic anhydrase 1 (Homo sapiens) (UniProt P00915)
Description: Binding affinity to human carbonic anhydrase 1 assessed as activation constant by phenol red dye based stopped-flow method

[3] = biological target: Carbonic anhydrase 2 (Homo sapiens) (UniProt P00918)
Description: Binding affinity to human carbonic anhydrase 2 assessed as activation constant by phenol red dye based stopped-flow method

[4] = biological target: Carbonic anhydrase 4 (Homo sapiens) (UniProt P22748)
Sequence of Carbonic anhydrase 4 (Homo sapiens) (P22748 whole entry): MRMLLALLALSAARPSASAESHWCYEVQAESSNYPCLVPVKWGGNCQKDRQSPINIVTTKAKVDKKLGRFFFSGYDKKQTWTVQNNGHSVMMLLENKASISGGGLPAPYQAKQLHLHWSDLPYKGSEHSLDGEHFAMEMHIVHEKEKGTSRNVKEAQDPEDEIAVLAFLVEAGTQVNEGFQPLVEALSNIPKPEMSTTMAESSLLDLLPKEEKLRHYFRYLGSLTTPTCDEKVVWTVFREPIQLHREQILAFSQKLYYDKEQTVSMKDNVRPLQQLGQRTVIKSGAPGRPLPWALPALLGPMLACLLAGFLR
Description: Binding affinity to human carbonic anhydrase 4 assessed as activation constant by phenol red dye based stopped-flow method

[5] = biological target: Carbonic anhydrase 7 (Homo sapiens) (UniProt P43166)
Sequence of Carbonic anhydrase 7 (Homo sapiens) (P43166 whole entry): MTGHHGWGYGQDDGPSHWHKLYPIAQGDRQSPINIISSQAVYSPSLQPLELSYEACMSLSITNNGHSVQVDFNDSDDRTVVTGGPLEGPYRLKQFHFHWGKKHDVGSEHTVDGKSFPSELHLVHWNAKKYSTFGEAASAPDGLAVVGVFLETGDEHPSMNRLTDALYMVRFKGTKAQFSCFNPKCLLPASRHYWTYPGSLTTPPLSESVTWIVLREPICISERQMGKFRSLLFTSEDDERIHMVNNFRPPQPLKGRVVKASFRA
Description: Binding affinity to human carbonic anhydrase 7 assessed as activation constant by phenol red dye based stopped-flow method

[6] = biological target: Cholinesterase (Equus caballus, UniProt P81908)
Sequence of Cholinesterase (P81908 whole entry): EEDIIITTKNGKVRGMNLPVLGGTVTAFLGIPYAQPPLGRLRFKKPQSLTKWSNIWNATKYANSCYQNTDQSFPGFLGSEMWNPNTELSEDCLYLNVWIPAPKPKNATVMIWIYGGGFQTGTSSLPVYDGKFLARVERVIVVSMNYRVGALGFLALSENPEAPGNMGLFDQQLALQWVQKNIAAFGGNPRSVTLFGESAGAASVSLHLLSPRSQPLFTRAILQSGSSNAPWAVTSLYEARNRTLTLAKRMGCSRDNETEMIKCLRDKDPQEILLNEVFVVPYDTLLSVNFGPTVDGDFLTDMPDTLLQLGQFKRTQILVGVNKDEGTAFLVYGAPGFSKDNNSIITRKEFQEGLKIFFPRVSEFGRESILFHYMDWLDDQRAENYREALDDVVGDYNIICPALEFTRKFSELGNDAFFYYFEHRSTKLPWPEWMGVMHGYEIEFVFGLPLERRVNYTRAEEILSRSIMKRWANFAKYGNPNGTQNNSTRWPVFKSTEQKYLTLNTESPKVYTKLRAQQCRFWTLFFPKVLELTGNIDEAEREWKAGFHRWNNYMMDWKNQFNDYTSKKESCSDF
Description: Inhibition of equine serum BuChE by microplate reader based analysis

[7] = biological target: Carbonic anhydrase 5B, mitochondrial (Homo sapiens) (UniProt Q9Y2D0)
Sequence of Carbonic anhydrase 5B, mitochondrial (Homo sapiens) (Q9Y2D0 whole entry): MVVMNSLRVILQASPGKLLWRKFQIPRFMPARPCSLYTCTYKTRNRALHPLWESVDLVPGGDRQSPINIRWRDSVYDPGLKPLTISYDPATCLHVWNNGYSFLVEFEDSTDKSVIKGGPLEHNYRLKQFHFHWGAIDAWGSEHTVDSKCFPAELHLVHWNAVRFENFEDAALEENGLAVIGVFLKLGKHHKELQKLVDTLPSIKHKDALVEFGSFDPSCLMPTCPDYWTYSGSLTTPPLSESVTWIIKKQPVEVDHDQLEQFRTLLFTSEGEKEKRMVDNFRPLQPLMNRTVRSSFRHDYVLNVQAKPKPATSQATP
Description: Binding affinity to human carbonic anhydrase 5B assessed as activation constant by phenol red dye based stopped-flow method

Sequence of Acetylcholinesterase (O42275 whole entry): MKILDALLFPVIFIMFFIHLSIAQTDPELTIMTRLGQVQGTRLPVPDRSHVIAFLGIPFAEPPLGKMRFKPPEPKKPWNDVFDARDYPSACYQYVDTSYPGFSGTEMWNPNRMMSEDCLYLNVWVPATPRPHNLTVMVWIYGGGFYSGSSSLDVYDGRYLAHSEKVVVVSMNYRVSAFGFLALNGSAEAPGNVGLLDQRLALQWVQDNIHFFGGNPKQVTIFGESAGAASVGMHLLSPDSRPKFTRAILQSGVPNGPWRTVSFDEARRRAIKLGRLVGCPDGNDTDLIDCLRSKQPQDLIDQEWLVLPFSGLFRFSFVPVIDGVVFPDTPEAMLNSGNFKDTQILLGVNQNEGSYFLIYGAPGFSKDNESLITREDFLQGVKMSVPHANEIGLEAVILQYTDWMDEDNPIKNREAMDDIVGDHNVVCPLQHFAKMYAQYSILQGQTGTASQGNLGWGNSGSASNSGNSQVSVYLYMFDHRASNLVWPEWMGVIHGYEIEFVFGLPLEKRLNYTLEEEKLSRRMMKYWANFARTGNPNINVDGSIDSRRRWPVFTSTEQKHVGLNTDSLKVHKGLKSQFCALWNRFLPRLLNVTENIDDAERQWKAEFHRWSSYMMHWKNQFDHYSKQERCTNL
Sequence of Carbonic anhydrase 1 (Homo sapiens) (P00915 2-261 limits assumed): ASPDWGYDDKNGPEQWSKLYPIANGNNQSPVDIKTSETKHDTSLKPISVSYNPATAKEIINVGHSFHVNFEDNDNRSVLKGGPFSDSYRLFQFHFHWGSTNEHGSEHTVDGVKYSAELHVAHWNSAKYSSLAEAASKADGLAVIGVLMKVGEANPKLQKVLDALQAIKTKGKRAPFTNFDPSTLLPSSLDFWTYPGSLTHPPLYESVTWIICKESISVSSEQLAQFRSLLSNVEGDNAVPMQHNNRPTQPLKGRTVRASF

Compound	IC50 [1]	KA ([2]; filed as activator)	KA ([3]; filed as activator)	KA ([4]; filed as activator)	KA ([5]; filed as activator)	IC50 [6]	KA ([7]; filed as activator)	KA [2]	KA [4]	KA [5]	KA [7]	KA [3]
N[C@@H](Cc1c[nH]cn1)C(=O)NCCCCCCNc1c2c(nc3ccccc13)CCCC2	12.1 nM	1050 nM	283 nM	3.56 µM	82.8 nM	5.2 nM	0.554 µM					
COC(=O)[C@H](CCCCNC(=O)OCc1ccccc1)NCCCCCCNc1c2c(nc3ccccc13)CCCC2	35.6 nM	2280 nM	2410 nM	20.2 µM	2250 nM	0.29 nM	4.61 µM					
COC(=O)[C@H](Cc1ccccc1)NCCCCCCNc1c2c(nc3ccccc13)CCCC2	21.8 nM	992 nM	312 nM	1.45 µM	397 nM	0.21 nM	5.17 µM					
c1ccc2c(NCCCCCCNCCc3c[nH]cn3)c3c(nc2c1)CCCC3	2.2 nM	236 nM	102 nM	2.28 µM	386 nM	2 nM	0.5 µM					
CC(C)(C)OC(=O)N[C@@H](Cc1c[nH]c2ccccc12)C(=O)NCCCCNc1c2c(nc3ccccc13)CCCC2	82.3 nM	2620 nM	7650 nM	8.58 µM	2630 nM	0.21 nM	8.64 µM					
CC(C)(C)OC(=O)N[C@@H](Cc1cn(C(=O)OC(C)(C)C)cn1)C(=O)NCCCCNc1c2c(nc3ccccc13)CCCC2	122 nM		12400 nM			0.064 nM		> 50000 nM	> 50 µM	> 50000 nM	> 50 µM	
COC(=O)[C@H](Cc1ccccc1)NCCCCCNc1c2c(nc3ccccc13)CCCC2	110 nM	731 nM	247 nM	3.45 µM	535 nM	3.8 nM	5.32 µM					
N[C@@H](CCCCNC(=O)OCc1ccccc1)C(=O)NCCCCNc1c2c(nc3ccccc13)CCCC2	250 nM	3270 nM	1900 nM	9.73 µM	975 nM	2.5 nM	1.4 µM					
COC(=O)[C@H](Cc1c[nH]cn1)NCCCCCNc1c2c(nc3ccccc13)CCCC2	143 nM	311 nM	175 nM	3.65 µM	211 nM	4.4 nM	2.43 µM					
N[C@@H](CCCCNC(=O)OCc1ccccc1)C(=O)NCCCCCNc1c2c(nc3ccccc13)CCCC2	238 nM	3530 nM	981 nM	3.61 µM	2730 nM	0.33 nM	4.97 µM					
CC(C)(C)OC(=O)N[C@@H](Cc1c[nH]c2ccccc12)C(=O)NCCCCCCNc1c2c(nc3ccccc13)CCCC2	15.9 nM	1120 nM	2660 nM	4.46 µM	1130 nM	0.26 nM	24.2 µM					
CC(C)(C)OC(=O)N[C@@H](Cc1ccccc1)C(=O)NCCCCCCNc1c2c(nc3ccccc13)CCCC2	9.9 nM					0.091 nM		> 50000 nM	> 50 µM	> 50000 nM	> 50 µM	> 50000 nM
CC(C)(C)OC(=O)N[C@@H](Cc1ccccc1)C(=O)NCCCNc1c2c(nc3ccccc13)CCCC2	202 nM					0.16 nM		> 50000 nM	> 50 µM	> 50000 nM	> 50 µM	> 50000 nM
N[C@@H](Cc1c[nH]cn1)C(=O)NCCCNc1c2c(nc3ccccc13)CCCC2	119 nM	581 nM	376 nM	0.619 µM	281 nM	5.8 nM	1.86 µM					
CC(C)(C)OC(=O)N[C@@H](CCCCNC(=O)OCc1ccccc1)C(=O)NCCCNc1c2c(nc3ccccc13)CCCC2	419 nM					0.25 nM		> 50000 nM	> 50 µM	> 50000 nM	> 50 µM	> 50000 nM
N[C@@H](Cc1c[nH]c2ccccc12)C(=O)NCCCNc1c2c(nc3ccccc13)CCCC2	58.9 nM	1010 nM	833 nM	2.33 µM	566 nM	1.6 nM	1.96 µM					
COC(=O)[C@@H](N)Cc1ccc(OCCCCCCNc2c3c(nc4ccccc24)CCCC3)cc1	26.4 nM	702 nM	295 nM	8.25 µM	185 nM	2.7 nM	6.16 µM					
NCCc1c[nH]cn1		2100 nM		25 µM	37000 nM		3.5 µM					> 100000 nM
COC(=O)[C@H](Cc1ccc(OCCCCCNc2c3c(nc4ccccc24)CCCC3)cc1)NC(=O)OC(C)(C)C	65.4 nM					> 15.3 nM		> 50000 nM	> 50 µM	> 50000 nM	> 50 µM	> 50000 nM

Compound	IC50 [1]	KA ([2]; filed as activator)	KA ([3]; filed as activator)	KA ([4]; filed as activator)	KA ([5]; filed as activator)	IC50 [6]	KA ([7]; filed as activator)	KA [2]	KA [4]	KA [5]	KA [7]	KA [3]
CC(C)(C)OC(=O)N[C@@H](Cc1cn(C(=O)OC(C)(C)C)cn1)C(=O)NCCCCCCNc1c2c(nc3ccccc13)CCCC2	14.5 nM		10000 nM			0.44 nM		> 50000 nM	> 50 µM	> 50000 nM	> 50 µM	
N[C@@H](Cc1ccccc1)C(=O)NCCCCCCNc1c2c(nc3ccccc13)CCCC2	78 nM	481 nM	157 nM	4.78 µM	160 nM	2.7 nM	4.64 µM					
N[C@@H](Cc1c[nH]c2ccccc12)C(=O)NCCCCCNc1c2c(nc3ccccc13)CCCC2	37.8 nM	630 nM	119 nM	1.72 µM	105 nM	1 nM	0.936 µM					
CC(C)(C)OC(=O)N[C@@H](Cc1c[nH]c2ccccc12)C(=O)NCCCCCNc1c2c(nc3ccccc13)CCCC2	108 nM	1010 nM	2940 nM	5.67 µM	1020 nM	0.22 nM	7.15 µM					
N[C@@H](Cc1ccccc1)C(=O)NCCCNc1c2c(nc3ccccc13)CCCC2	239 nM	893 nM	726 nM	5.85 µM	491 nM	0.22 nM	0.971 µM					
COC(=O)[C@H](Cc1c[nH]c2ccccc12)NCCCCCCNc1c2c(nc3ccccc13)CCCC2	23.3 nM	436 nM	631 nM	2.23 µM	637 nM	2.8 nM	5.1 µM					
N[C@@H](Cc1c[nH]cn1)C(=O)NCCCCNc1c2c(nc3ccccc13)CCCC2	101 nM	972 nM	199 nM	0.958 µM	391 nM	4.1 nM	1.47 µM					
N[C@@H](Cc1c[nH]c2ccccc12)C(=O)NCCCCCCNc1c2c(nc3ccccc13)CCCC2	2.4 nM	876 nM	539 nM	0.541 µM	79.8 nM	1.2 nM	0.353 µM					
CC(C)(C)OC(=O)N[C@@H](Cc1ccccc1)C(=O)NCCCCCNc1c2c(nc3ccccc13)CCCC2	243 nM					0.34 nM		> 50000 nM	> 50 µM	> 50000 nM	> 50 µM	> 50000 nM
CC(C)(C)OC(=O)N[C@@H](Cc1cn(C(=O)OC(C)(C)C)cn1)C(=O)NCCCCCNc1c2c(nc3ccccc13)CCCC2	141 nM		11100 nM			0.57 nM	9.05 µM	> 50000 nM	> 50 µM	> 50000 nM		
COC(=O)[C@H](Cc1c[nH]c2ccccc12)NCCCCCNc1c2c(nc3ccccc13)CCCC2	37.6 nM	606 nM	840 nM	2.93 µM	482 nM	4 nM	0.471 µM					
CC(C)(C)OC(=O)N[C@@H](CCCCNC(=O)OCc1ccccc1)C(=O)NCCCCCNc1c2c(nc3ccccc13)CCCC2	299 nM					0.34 nM		> 50000 nM	> 50 µM	> 50000 nM	> 50 µM	> 50000 nM
N[C@@H](Cc1ccccc1)C(=O)NCCCCNc1c2c(nc3ccccc13)CCCC2	465 nM	432 nM	565 nM	7.62 µM	433 nM	9.5 nM	4.79 µM					
CC(C)(C)OC(=O)N[C@@H](CCCCNC(=O)OCc1ccccc1)C(=O)NCCCCNc1c2c(nc3ccccc13)CCCC2	327 nM					0.16 nM		> 50000 nM	> 50 µM	> 50000 nM	> 50 µM	> 50000 nM
COC(=O)[C@H](CCCCNC(=O)OCc1ccccc1)NCCCCCNc1c2c(nc3ccccc13)CCCC2	12.4 nM	3300 nM	1990 nM	19 µM	1370 nM	0.073 nM	1.4 µM					
COC(=O)[C@H](Cc1ccc(OCCCCCCNc2c3c(nc4ccccc24)CCCC3)cc1)NC(=O)OC(C)(C)C	16 nM					0.11 nM		> 50000 nM	> 50 µM	> 50000 nM	> 50 µM	> 50000 nM
COC(=O)[C@@H](N)Cc1ccc(OCCCCCNc2c3c(nc4ccccc24)CCCC3)cc1	22.1 nM	552 nM	372 nM	16.8 µM	803 nM	0.048 nM	1.73 µM					
CC(C)(C)OC(=O)N[C@@H](Cc1c[nH]c2ccccc12)C(=O)NCCCNc1c2c(nc3ccccc13)CCCC2	426 nM	1920 nM	5180 nM	21.7 µM	1920 nM	0.5 nM					> 50 µM	
